Measured values as given in ChEMBL document CHEMBL5104195, “Discovery of Orally Bioavailable SOS1 Inhibitors for Suppressing KRAS-Driven Carcinoma” (J Med Chem, 2022).

Legend:
[1] = Toxicity in BALB/c nude mouse xenografted with human MIA PaCa-21 cells expressing KRAS G12C mutant assessed as animal death at 50 mg/kg, po qd measured on day 21; settings: in vivo, 504 h
[2] = rat, in vivo, iv, 2 mg/kg, 24 h
[3] = Plasma protein binding in dog at 2 uM preincubated for 1 hr by balanced dialysis based LC-MS/MS analysis
Cytochrome P450 2C8 [4] = molecular target: T1, Cytochrome P450 2C8 (Homo sapiens, UniProt P10632); experiment: Inhibition of CYP2C8 in human liver microsomes at 10 uM using amodiaquine as substrate preincubated for 10 mins followed by NADPH addition by LC/MS analysis
T1 sequence (P10632 whole entry): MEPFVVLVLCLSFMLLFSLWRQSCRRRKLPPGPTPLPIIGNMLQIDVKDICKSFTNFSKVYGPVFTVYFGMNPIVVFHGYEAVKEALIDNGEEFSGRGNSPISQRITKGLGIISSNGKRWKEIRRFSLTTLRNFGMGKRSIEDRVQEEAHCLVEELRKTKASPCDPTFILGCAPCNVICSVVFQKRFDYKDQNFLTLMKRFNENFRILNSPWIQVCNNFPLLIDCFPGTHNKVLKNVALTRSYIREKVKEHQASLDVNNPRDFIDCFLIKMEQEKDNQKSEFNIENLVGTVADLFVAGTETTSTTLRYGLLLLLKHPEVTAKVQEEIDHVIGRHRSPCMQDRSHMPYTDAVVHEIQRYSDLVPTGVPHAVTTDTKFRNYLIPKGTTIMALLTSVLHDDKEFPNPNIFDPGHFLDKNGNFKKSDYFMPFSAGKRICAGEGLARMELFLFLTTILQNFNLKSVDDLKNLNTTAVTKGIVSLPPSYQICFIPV

[5] = dog, in vivo, po, 20 mg/kg, 24 h
[6] = Plasma protein binding in mouse at 2 uM preincubated for 1 hr by balanced dialysis based LC-MS/MS analysis
[7] = dog, in vivo, po, 20 mg/kg, 24 h; remark: listed apart in the source
Cytochrome P450 2D6 [8] = molecular target: T2, Cytochrome P450 2D6 (Homo sapiens, UniProt P10635); experiment: Inhibition of CYP2D6 in human liver microsomes at 10 uM using dextromethorphan as substrate preincubated for 10 mins followed by NADPH addition by LC/MS analysis
[9] = rat, in vivo, po, 10 mg/kg, 24 h
[10] = Cardiotoxicity in Patient-specific iPSC-derived cardiomyocytes assessed as decrease in spontaneous beating of myocardial cell at 3 uM by patch clamp assay; settings: human, cardiac muscle cell
[11] = Cardiotoxicity in Patient-specific iPSC-derived cardiomyocytes assessed as decrease in spontaneous beating of myocardial cell at 10 uM by patch clamp assay; settings: human, cardiac muscle cell
[12] = Toxicity in BALB/c nude mouse xenografted with human MIA PaCa-21 cells expressing KRAS G12C mutant assessed as weight loss at 50 mg/kg, po qd measured on day 21; settings: in vivo
Cytochrome P450 3A4 [13] = molecular target: T3, Cytochrome P450 3A4 (Homo sapiens, UniProt P08684); experiment: Inhibition of CYP3A4 in human liver microsomes at 10 uM using midazolam as substrate preincubated for 10 mins followed by NADPH addition by LC/MS analysis
Cytochrome P450 3A4 [14] = molecular target: T3, Cytochrome P450 3A4; experiment: Time-dependent inhibition of CYP3A4 (unknown origin) at 2 ul pre-incubated for 30 mins in presence or absence of NADPH incubated for 10 mins by LC/MS analysis
[15] = dog, in vivo, po, 20 mg/kg, 24 h; remark: listed apart in the source
[16] = rat, in vivo, iv, 2 mg/kg, 24 h; remark: listed apart in the source
Cytochrome P450 2C9 [17] = molecular target: T4, Cytochrome P450 2C9 (Homo sapiens, UniProt P11712); experiment: Time-dependent inhibition of CYP2C9 (unknown origin) at 2 ul pre-incubated for 30 mins in presence or absence of NADPH incubated for 10 mins by LC/MS analysis
[18] = Half life in Sprague-Dawley rat at 2 mg/kg, iv measured upto 24 hrs by LC/MS/MS analysis; settings: in vivo
[19] = Apparent permeability across apical to basolateral side in dog MDCKII-MDR1 cells; settings: MDCK-MDR1
[20] = Plasma protein binding in monkey at 2 uM preincubated for 1 hr by balanced dialysis based LC-MS/MS analysis; settings: rhesus monkey
in vitro [21] = settings: rhesus monkey, liver microsomes
Cytochrome P450 2D6 [22] = molecular target: T2, Cytochrome P450 2D6; experiment: Time-dependent inhibition of CYP2D6 (unknown origin) at 2 ul pre-incubated for 30 mins in presence or absence of NADPH incubated for 10 mins by LC/MS analysis
Cytochrome P450 2C9 [23] = molecular target: T4, Cytochrome P450 2C9; experiment: Inhibition of CYP2C9 in human liver microsomes at 10 uM using diclofenac as substrate preincubated for 10 mins followed by NADPH addition by LC/MS analysis
[24] = Half life in Sprague-Dawley rat at 10 mg/kg, po measured upto 24 hrs by LC/MS/MS analysis; settings: in vivo
in vivo [25] = settings: ICR, mouse, po, 50 mg/kg
Cytochrome P450 2C8 [26] = molecular target: T1, Cytochrome P450 2C8; experiment: Time-dependent inhibition of CYP2C8 (unknown origin) at 2 ul pre-incubated for 30 mins in presence or absence of NADPH incubated for 10 mins by LC/MS analysis
[27] = rat, in vivo, iv, 2 mg/kg, 24 h; remark: listed apart in the source
in vitro [28] = settings: dog, liver microsomes
[29] = Half life in overnight fasted Beagle dog at 20 mg/kg, po measured upto 24 hrs by LC/MS/MS analysis; settings: in vivo
[30] = Cardiotoxicity in Patient-specific iPSC-derived cardiomyocytes assessed as decrease in maximum depolarization rate of action potential at 0.03 to 3 uM by patch clamp assay; settings: human, cardiac muscle cell
in vitro [31] = settings: rat, liver microsomes
in vitro [32] = settings: mouse, liver microsomes
in vitro [33] = settings: human, liver microsomes
[34] = MRT in ICR mouse at 50 mg/kg, po measured up to 24 hrs by LC-MS/MS analysis; settings: in vivo
in vivo [35] = settings: ICR, mouse, po, 50 mg/kg; remark: listed apart in the source
[36] = Half life in ICR mouse at 50 mg/kg, po measured up to 24 hrs by LC-MS/MS analysis; settings: in vivo
[37] = Plasma protein binding in rat at 2 uM preincubated for 1 hr by balanced dialysis based LC-MS/MS analysis
[38] = Apparent permeability across basolateral side to apical side in dog MDCKII-MDR1 cells; settings: MDCK-MDR1
[39] = rat, in vivo, po, 10 mg/kg, 24 h; remark: listed apart in the source
[40] = rat, in vivo, po, 10 mg/kg, 24 h; remark: listed apart in the source
Cytochrome P450 1A2 = molecular target: T5, Cytochrome P450 1A2 (Homo sapiens, UniProt P05177); experiment: Inhibition of CYP1A2 in human liver microsomes at 10 uM using phenacetin as substrate preincubated for 10 mins followed by NADPH addition by LC/MS analysis
T5 sequence (P05177 whole entry): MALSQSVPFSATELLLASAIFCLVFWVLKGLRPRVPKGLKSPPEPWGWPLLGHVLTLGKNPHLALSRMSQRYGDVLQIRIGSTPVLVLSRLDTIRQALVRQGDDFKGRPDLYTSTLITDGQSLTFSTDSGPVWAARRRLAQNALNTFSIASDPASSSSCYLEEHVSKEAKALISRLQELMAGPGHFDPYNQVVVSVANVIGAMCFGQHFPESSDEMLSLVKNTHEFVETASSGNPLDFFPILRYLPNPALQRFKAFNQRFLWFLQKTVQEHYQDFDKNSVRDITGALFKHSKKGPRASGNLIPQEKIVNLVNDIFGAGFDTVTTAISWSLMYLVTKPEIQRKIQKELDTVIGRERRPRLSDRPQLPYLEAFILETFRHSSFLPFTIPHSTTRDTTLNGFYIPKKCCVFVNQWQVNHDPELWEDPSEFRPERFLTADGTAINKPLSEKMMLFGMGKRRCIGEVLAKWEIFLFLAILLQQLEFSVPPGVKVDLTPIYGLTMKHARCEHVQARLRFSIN

in vivo [41] = settings: ICR, mouse, po, 50 mg/kg; remark: listed apart in the source
in vivo [42] = settings: Sprague-Dawley, rat, po, 10 mg/kg
[43] = Elimination rate constant in ICR mouse at 50 mg/kg, po measured up to 24 hrs by LC-MS/MS analysis; settings: in vivo
[44] = Cardiotoxicity in Patient-specific iPSC-derived cardiomyocytes assessed as decrease in action potential duration by patch clamp assay; type: toxicity, cell-based; settings: human, cardiac muscle cell

T2 sequence (P10635 whole entry): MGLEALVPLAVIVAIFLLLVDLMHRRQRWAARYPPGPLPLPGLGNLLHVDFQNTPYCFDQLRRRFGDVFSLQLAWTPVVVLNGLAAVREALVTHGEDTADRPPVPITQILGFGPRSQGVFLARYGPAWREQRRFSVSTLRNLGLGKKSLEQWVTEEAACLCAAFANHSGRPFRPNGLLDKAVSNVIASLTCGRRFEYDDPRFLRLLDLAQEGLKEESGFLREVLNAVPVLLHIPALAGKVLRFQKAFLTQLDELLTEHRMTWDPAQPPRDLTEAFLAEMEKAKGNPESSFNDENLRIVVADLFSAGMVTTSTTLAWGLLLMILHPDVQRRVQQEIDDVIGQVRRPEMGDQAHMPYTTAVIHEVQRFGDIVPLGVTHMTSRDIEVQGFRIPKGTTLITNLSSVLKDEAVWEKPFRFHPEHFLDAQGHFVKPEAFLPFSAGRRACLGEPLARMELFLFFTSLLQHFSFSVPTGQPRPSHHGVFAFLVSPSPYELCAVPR
T3 sequence (P08684 whole entry): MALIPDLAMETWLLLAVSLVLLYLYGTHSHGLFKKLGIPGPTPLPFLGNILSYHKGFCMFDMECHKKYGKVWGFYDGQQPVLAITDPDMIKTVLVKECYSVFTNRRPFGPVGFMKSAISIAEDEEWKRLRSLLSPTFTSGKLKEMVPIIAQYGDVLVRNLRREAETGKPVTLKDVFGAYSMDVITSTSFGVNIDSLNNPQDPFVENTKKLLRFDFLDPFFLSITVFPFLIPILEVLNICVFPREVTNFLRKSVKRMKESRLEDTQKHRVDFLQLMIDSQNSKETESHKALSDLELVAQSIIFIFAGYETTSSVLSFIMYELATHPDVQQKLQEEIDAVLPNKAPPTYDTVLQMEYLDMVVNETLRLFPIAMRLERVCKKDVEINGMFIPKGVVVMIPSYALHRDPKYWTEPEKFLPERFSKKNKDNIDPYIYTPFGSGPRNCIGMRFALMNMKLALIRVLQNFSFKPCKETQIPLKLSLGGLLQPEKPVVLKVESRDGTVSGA
T4 sequence (P11712 whole entry): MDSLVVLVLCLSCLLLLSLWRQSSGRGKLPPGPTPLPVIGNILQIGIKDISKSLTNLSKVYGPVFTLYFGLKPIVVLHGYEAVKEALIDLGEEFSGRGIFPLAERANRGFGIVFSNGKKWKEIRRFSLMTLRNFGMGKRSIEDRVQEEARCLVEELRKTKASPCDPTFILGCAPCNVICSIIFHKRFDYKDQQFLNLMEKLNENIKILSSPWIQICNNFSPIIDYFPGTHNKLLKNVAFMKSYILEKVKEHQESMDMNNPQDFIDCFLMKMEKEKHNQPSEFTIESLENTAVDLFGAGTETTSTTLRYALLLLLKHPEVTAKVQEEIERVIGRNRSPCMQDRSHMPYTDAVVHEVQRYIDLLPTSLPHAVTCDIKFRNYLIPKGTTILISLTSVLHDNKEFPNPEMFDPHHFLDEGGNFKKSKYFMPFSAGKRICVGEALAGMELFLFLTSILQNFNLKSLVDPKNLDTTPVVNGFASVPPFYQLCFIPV

SMILES: Cc1nc(N[C@H](C)c2cccc(C(F)F)c2F)c2cc3c(cc2n1)OCC[C@H]1CN(CC(F)(F)F)CCN31
- Activity [1]: Non-Toxic
- Tmax [2]: 4.8 min
- fraction unbound at 1 h, 2 µM [3]: 0.002
- IC50 (Cytochrome P450 2C8 [4]): 45.2 µM
- AUC [5]: 1322 ng·h/mL
- fraction unbound at 1 h, 2 µM [6]: 0.001
- Tmax [7]: 1.17 h
- IC50 (Cytochrome P450 2D6 [8]): 6.1 µM
- Cmax [9]: 109 ng/mL
- Activity [10]: Toxic
- Activity [11]: Toxic
- Activity [12]: Non-Toxic
- IC50 (Cytochrome P450 3A4 [13]): > 100 µM
- IC50 (Cytochrome P450 3A4 [14]): > 100 µM
- Cmax [15]: 232 ng/mL
- Cmax [16]: 518 ng/mL
- IC50 (Cytochrome P450 2C9 [17]): 14.6 µM
- t1/2 [18]: 5.35 h
- Papp A→B [19]: 0.26 ×10⁻⁶ cm/s
- fraction unbound at 1 h, 2 µM [20]: 0.001
- CLint scaled at 1 h, 1 µM (in vitro [21]): 396 mL/min/kg
- IC50 (Cytochrome P450 2D6 [22]): 4.3 µM
- IC50 (Cytochrome P450 2C9 [23]): 15.4 µM
- t1/2 [24]: 2 h
- AUC at 24 h (in vivo [25]): 19900 ng·h/mL
- IC50 (Cytochrome P450 2C8 [26]): 39.1 µM
- AUC [27]: 596 ng·h/mL
- CLint scaled at 1 h, 1 µM (in vitro [28]): 12 mL/min/kg
- t1/2 [29]: 6.74 h
- Activity [30]: Toxic
- CLint scaled at 1 h, 1 µM (in vitro [31]): 516 mL/min/kg
- CLint scaled at 1 h, 1 µM (in vitro [32]): 436 mL/min/kg
- CLint scaled at 1 h, 1 µM (in vitro [33]): 442 mL/min/kg
- MRT at 24 h [34]: 5.5 h
- Tmax at 24 h (in vivo [35]): 0.833 h
- half-life at 24 h [36]: 4.13 h
- fraction unbound at 1 h, 2 µM [37]: 0.001
- Papp B→A [38]: 0.78 ×10⁻⁶ cm/s
- Tmax [39]: 2.33 h
- AUC [40]: 563 ng·h/mL
- IC50 (Cytochrome P450 1A2): > 100 µM
- Cmax at 24 h (in vivo [41]): 2260 ng/mL
- bioavailability at 24 h (in vivo [42]): 18.8%
- k el at 24 h [43]: 4.75e-05 s⁻¹
- Activity [44]: Toxic
